In PubChem BioAssay AID256 (DTP/NCI, 2004):
“And” between values parts separate entries of the source, which are not always exact repeats. Identical values can stand only once. Inconclusive results and toxic doses are left out. How the source made its calls: active means survival T/C of 150% or more; inactive means T/C below 125% in these data.

Tested on: CD2F1 mice, L1210 leukemia ip, survival T/C
Assay: NCI In Vivo Anticancer Drug Screen. Data for tumor model L1210 Leukemia (intraperitoneal) in CD2F1 (CDF1) mice
Conditions: higher = longer survival
Outline: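 Compound-dosed mice with transplantable tumor versus matched vehicle controls; endpoint ratio T/C reported.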

[1] = endpoint: mean survival time, dose: 100.0 mg/kg/injection, schedule: Q01DX009 (ip), vehicle: saline with Tween-80
[2] = endpoint: mean survival time, dose: 200.0 mg/kg/injection, schedule: Q01DX009 (ip), vehicle: saline with Tween-80
[3] = endpoint: mean survival time, dose: 400.0 mg/kg/injection, schedule: Q01DX009 (ip), vehicle: saline with Tween-80
[4] = endpoint: mean survival time, dose: 100.0 mg/kg/injection, schedule: Q04DX003 (ip), vehicle: saline
[5] = endpoint: mean survival time, dose: 200.0 mg/kg/injection, schedule: Q04DX003 (ip), vehicle: saline
[6] = endpoint: mean survival time, dose: 400.0 mg/kg/injection, schedule: Q04DX003 (ip), vehicle: saline
[7] = endpoint: mean survival time, dose: 100.0 mg/kg/injection, schedule: Q01DX001 (ip), vehicle: saline
[8] = endpoint: mean survival time, dose: 200.0 mg/kg/injection, schedule: Q01DX001 (ip), vehicle: saline
[9] = endpoint: mean survival time, dose: 100.0 mg/kg/injection, schedule: Q04DX003 (ip), vehicle: saline with Tween-80
[10] = endpoint: mean survival time, dose: 200.0 mg/kg/injection, schedule: Q04DX003 (ip), vehicle: saline with Tween-80
[11] = endpoint: mean survival time, dose: 400.0 mg/kg/injection, schedule: Q04DX003 (ip), vehicle: saline with Tween-80
[12] = endpoint: mean survival time, dose: 400.0 mg/kg/injection, schedule: Q01DX001 (ip), vehicle: saline
[13] = endpoint: mean survival time, dose: 75.0 mg/kg/injection, schedule: Q01DX001 (ip), vehicle: saline
[14] = endpoint: mean survival time, dose: 100.0 mg/kg/injection, schedule: Q01DX001 (ip), vehicle: saline with Tween-80
[15] = endpoint: mean survival time, dose: 200.0 mg/kg/injection, schedule: Q01DX001 (ip), vehicle: saline with Tween-80
[16] = endpoint: mean survival time, dose: 400.0 mg/kg/injection, schedule: Q01DX001 (ip), vehicle: saline with Tween-80

Measured: T/C

N#CCCN(CCCN1CCOCC1)C(=S)Nc1ccc(Cl)cc1
inactive: [1] 104 % of control | [2] 104 % of control | [3] 93 % of control

CC1OC(=O)C(C(C)C)NC(=O)C(C(C)C)OC(=O)C(C(C)C)NC(=O)C(C)OC(=O)C(C(C)C)NC(=O)C(C(C)C)OC(=O)C(C(C)C)NC(=O)C(C)OC(=O)C(C(C)C)NC(=O)C(C(C)C)OC(=O)C(C(C)C)NC1=O (stereo unspecified)
inactive: endpoint: mean survival time, dose: 1.25 mg/kg/injection, schedule: Q01DX009 (ip), vehicle: saline with Tween-80 109 % of control | endpoint: mean survival time, dose: 2.5 mg/kg/injection, schedule: Q01DX009 (ip), vehicle: saline with Tween-80 103 % of control and 107 % of control | endpoint: mean survival time, dose: 5.0 mg/kg/injection, schedule: Q01DX009 (ip), vehicle: saline with Tween-80 103 % of control and 110 % of control | endpoint: mean survival time, dose: 10.0 mg/kg/injection, schedule: Q01DX009 (ip), vehicle: saline with Tween-80 106 % of control | endpoint: mean survival time, dose: 20.0 mg/kg/injection, schedule: Q01DX009 (ip), vehicle: saline with Tween-80 112 % of control

CC(CC(C(=O)O)C(=O)O)C(=O)O (stereo unspecified)
inactive: endpoint: mean survival time, dose: 12.5 mg/kg/injection, schedule: Q01DX009 (ip), vehicle: water 93 % of control | endpoint: mean survival time, dose: 25.0 mg/kg/injection, schedule: Q01DX009 (ip), vehicle: water 93 % of control | endpoint: mean survival time, dose: 50.0 mg/kg/injection, schedule: Q01DX009 (ip), vehicle: water 93 % of control | endpoint: mean survival time, dose: 100.0 mg/kg/injection, schedule: Q01DX009 (ip), vehicle: water 91 % of control

CN(C)CCCNCc1c[nH]c(=O)[nH]c1=O
inactive: endpoint: mean survival time, dose: 100.0 mg/kg/injection, schedule: Q01DX009 (ip), vehicle: saline 90 % of control | [4] 102 % of control | endpoint: mean survival time, dose: 200.0 mg/kg/injection, schedule: Q01DX009 (ip), vehicle: saline 102 % of control | [5] 100 % of control | endpoint: mean survival time, dose: 400.0 mg/kg/injection, schedule: Q01DX009 (ip), vehicle: saline 104 % of control | [6] 100 % of control

CC[C@@]1(O)C[C@H](OC2CC(N(C)C)C(OC3CC(O)C(OC4CCC(=O)C(C)O4)C(C)O3)C(C)O2)c2c(cc3c(c2O)C(=O)c2c(O)cccc2C3=O)[C@H]1C(=O)OC (stereo partly specified)
inactive: endpoint: mean survival time, dose: 0.12 mg/kg/injection, schedule: Q01DX009 (ip), vehicle: water 97 % of control | endpoint: mean survival time, dose: 0.25 mg/kg/injection, schedule: Q01DX009 (ip), vehicle: water 92 % of control | endpoint: mean survival time, dose: 0.5 mg/kg/injection, schedule: Q01DX009 (ip), vehicle: water 95 % of control | endpoint: mean survival time, dose: 1.0 mg/kg/injection, schedule: Q01DX009 (ip), vehicle: water 90 % of control | endpoint: mean survival time, dose: 2.0 mg/kg/injection, schedule: Q01DX009 (ip), vehicle: water 106 % of control | endpoint: mean survival time, dose: 4.0 mg/kg/injection, schedule: Q01DX009 (ip), vehicle: water 108 % of control | endpoint: mean survival time, dose: 8.0 mg/kg/injection, schedule: Q01DX009 (ip), vehicle: water 86 % of control | endpoint: mean survival time, dose: 50.0 mg/kg/injection, schedule: Q04DX002 (ip), vehicle: saline with Tween-80 87 % of control

CC(C)CCNC(=O)CI
inactive: [7] 101 % of control | [8] 95 % of control

COc1ccc(C(O)(c2ccc(OC)cc2)C(c2ccccc2)c2ccccc2)cc1
inactive: [1] 100 % of control | [2] 96 % of control | [3] 97 % of control

CCCCS(=O)(=O)C1CCCC1=O (stereo unspecified)
inactive: [9] 102 % of control | [10] 102 % of control | [11] 102 % of control

COC(=O)c1[nH]cnc1/N=N/N(C)C.[Cl][Cu][Cl]
inactive: endpoint: mean survival time, dose: 2.5 mg/kg/injection, schedule: Q01DX001 (ip), vehicle: saline 98 % of control | endpoint: mean survival time, dose: 5.0 mg/kg/injection, schedule: Q01DX001 (ip), vehicle: saline 92 % of control | endpoint: mean survival time, dose: 10.0 mg/kg/injection, schedule: Q01DX001 (ip), vehicle: saline 88 % of control and 96 % of control | endpoint: mean survival time, dose: 20.0 mg/kg/injection, schedule: Q01DX001 (ip), vehicle: saline 111 % of control

CC(O)C[As](=O)(O)c1ccccc1Cl (stereo unspecified)
inactive: endpoint: mean survival time, dose: 6.25 mg/kg/injection, schedule: Q04DX003 (ip), vehicle: saline 107 % of control | endpoint: mean survival time, dose: 12.5 mg/kg/injection, schedule: Q04DX003 (ip), vehicle: saline 107 % of control

O=C(O)C(O)C(O)C(=O)O (stereo unspecified)
inactive: [7] 103 % of control | [1] 102 % of control | [9] 97 % of control | [4] 110 % of control | [8] 106 % of control | [2] 102 % of control | [10] 92 % of control | [5] 98 % of control | [12] 110 % of control | [11] 97 % of control | [6] 101 % of control

CN1C(C(=O)O)CCC1C(=O)O (stereo unspecified)
inactive: [4] 96 % of control | [5] 98 % of control

O=C(NC1CC1(c1ccccc1)c1ccccc1)NC1CC1(c1ccccc1)c1ccccc1 (stereo unspecified)
inactive: endpoint: mean survival time, dose: 9.35 mg/kg/injection, schedule: Q01DX001 (ip), vehicle: other 93 % of control | endpoint: mean survival time, dose: 18.7 mg/kg/injection, schedule: Q01DX001 (ip), vehicle: other 91 % of control | endpoint: mean survival time, dose: 37.5 mg/kg/injection, schedule: Q01DX001 (ip), vehicle: other 94 % of control

COC(=O)NC1C(C)OC(OC2C/C=C(/C)C3C=CC4C(OC5CC(OC6CC(O)C(OC7CC(O)C(OC)C(C)O7)C(C)O6)C(O)C(C)O5)C(C)CC(C)C4C3(C)/C(O)=C3\C(=O)OC4(CC(C)C(CO)=CC4/C=C\2C)C3=O)CC1(C)[N+](=O)[O-] (stereo unspecified)
inactive: endpoint: median survival time, dose: 12.5 mg/kg/injection, schedule: Q01DX009 (ip), vehicle: Klucel (hydroxypropylcellulose) (HPC) 102 % of control | endpoint: median survival time, dose: 25.0 mg/kg/injection, schedule: Q01DX009 (ip), vehicle: Klucel (hydroxypropylcellulose) (HPC) 109 % of control | endpoint: median survival time, dose: 50.0 mg/kg/injection, schedule: Q01DX009 (ip), vehicle: Klucel (hydroxypropylcellulose) (HPC) 102 % of control | endpoint: median survival time, dose: 100.0 mg/kg/injection, schedule: Q01DX009 (ip), vehicle: Klucel (hydroxypropylcellulose) (HPC) 103 % of control

Oc1c(Cl)cc(Cl)cc1C=NCC1CCC(CN=Cc2cc(Cl)cc(Cl)c2O)CC1 (stereo unspecified)
inactive: [10] 90 % of control | [11] 90 % of control

COC(=O)[C@@H]1[C@@H](O)[C@H](OC(=O)c2cc(OC)c(OC)c(OC)c2)C[C@@H]2CN3CCc4c([nH]c5ccccc45)[C@H]3C[C@@H]21
inactive: endpoint: mean survival time, dose: 1.56 mg/kg/injection, schedule: Q01DX009 (ip), vehicle: saline sonified 93 % of control | endpoint: mean survival time, dose: 3.13 mg/kg/injection, schedule: Q01DX009 (ip), vehicle: saline sonified 95 % of control | endpoint: mean survival time, dose: 6.25 mg/kg/injection, schedule: Q01DX009 (ip), vehicle: saline sonified 102 % of control | endpoint: mean survival time, dose: 12.5 mg/kg/injection, schedule: Q04DX003 (ip), vehicle: saline with Tween-80 103 % of control | endpoint: mean survival time, dose: 25.0 mg/kg/injection, schedule: Q04DX003 (ip), vehicle: saline with Tween-80 103 % of control | endpoint: mean survival time, dose: 50.0 mg/kg/injection, schedule: Q04DX003 (ip), vehicle: saline with Tween-80 103 % of control

CN1CCCN(C)C1
inactive: [13] 97 % of control | endpoint: mean survival time, dose: 150.0 mg/kg/injection, schedule: Q01DX001 (ip), vehicle: saline 97 % of control | endpoint: mean survival time, dose: 300.0 mg/kg/injection, schedule: Q01DX001 (ip), vehicle: saline 102 % of control

CC(C)CC(C)COC(=O)c1c(Cl)c(Cl)c(Cl)c(Cl)c1C(=O)O (stereo unspecified)
inactive: [7] 90 % of control | [8] 90 % of control

OC(CN(C1CCCCC1)C1CCCCC1)c1ccc(Cl)c(Cl)c1 (stereo unspecified)
inactive: [7] 95 % of control | [4] 95 % of control | [8] 91 % of control | [5] 98 % of control | [12] 96 % of control | [6] 101 % of control

COc1cc(C)ccc1C1=CCCCC1
inactive: [4] 95 % of control | [5] 95 % of control | [6] 87 % of control

C/C(Cl)=C/C(=O)O.[Ag]
inactive: [13] 93 % of control

C/C(=N\O)C1(C)CC=CCC1C(=O)O (stereo unspecified)
inactive: [1] 90 % of control | [9] 100 % of control | [2] 93 % of control | [10] 96 % of control | [3] 94 % of control | [11] 94 % of control

CCCCCCCCCCCCCCCCC1CCC2CCCCC12 (stereo unspecified)
inactive: [14] 104 % of control | [15] 107 % of control | [16] 97 % of control

CN1CCN(C(=S)S)CC1
inactive: endpoint: mean survival time, dose: 12.5 mg/kg/injection, schedule: Q01DX009 (ip), vehicle: saline with Tween-80 100 % of control | endpoint: mean survival time, dose: 25.0 mg/kg/injection, schedule: Q01DX009 (ip), vehicle: saline with Tween-80 95 % of control | endpoint: mean survival time, dose: 50.0 mg/kg/injection, schedule: Q01DX009 (ip), vehicle: saline with Tween-80 100 % of control

Cc1c2c(cc3c1CCC1(C)C3CCC1C(C)/C=C/C(C)C(C)C)CCC=C2 (stereo unspecified)
inactive: [14] 95 % of control | [15] 90 % of control | [16] 86 % of control

COc1ccc(/C=C/C(=O)c2ccc3c(c2)OCO3)cc1OC
inactive: [4] 91 % of control | [5] 93 % of control | [6] 95 % of control
